Legend:
Assay in all cases: biochemical
Recombinant human MMP-13 = target: T1, Recombinant human MMP-13 (Homo sapiens, UniProt P45452); details: fluorogenic MCA-peptide substrate, pH 7.5, room temperature; read-out: MMP-13 IC50
T1 construct: made in house; host or cells: baculovirus / insect cells
Procedure, shortened: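 APMA-activated MMP (proenzyme purified on heparin agarose and chelating zinc columns) incubated at room temperature with 4 uM fluorogenic MCA-ProLeuGlyLeuDpaAlaArgNH2 substrate. Inhibition read as reduced fluorescence versus inhibitor concentration relative to a DMSO control, giving IC50.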

Recombinant human MMP-2 = target: T2, Recombinant human MMP-2 (Homo sapiens, UniProt P08253); details: fluorogenic MCA-peptide substrate, pH 7.5, room temperature; read-out: MMP-2 IC50
T2 construct: made in house
T2 sequence (P08253 110-660): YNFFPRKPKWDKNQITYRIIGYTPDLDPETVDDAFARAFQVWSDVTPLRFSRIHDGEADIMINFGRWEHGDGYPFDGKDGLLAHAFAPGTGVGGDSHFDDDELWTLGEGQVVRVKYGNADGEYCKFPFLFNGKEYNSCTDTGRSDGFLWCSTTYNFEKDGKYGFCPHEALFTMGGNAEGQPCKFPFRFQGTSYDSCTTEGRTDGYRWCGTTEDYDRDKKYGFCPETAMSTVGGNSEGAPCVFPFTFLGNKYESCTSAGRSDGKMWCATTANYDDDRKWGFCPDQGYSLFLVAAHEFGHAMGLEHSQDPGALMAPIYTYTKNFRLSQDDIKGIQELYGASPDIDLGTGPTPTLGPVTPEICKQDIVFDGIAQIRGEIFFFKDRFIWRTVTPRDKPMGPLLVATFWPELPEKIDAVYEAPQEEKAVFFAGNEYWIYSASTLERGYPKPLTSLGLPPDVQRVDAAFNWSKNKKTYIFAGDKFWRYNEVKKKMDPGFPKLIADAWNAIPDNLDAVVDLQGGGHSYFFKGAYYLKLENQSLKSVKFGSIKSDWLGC
Procedure, shortened: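 Activated (APMA or trypsin) recombinant human MMP-2, from transfected expressing cells, incubated at room temperature with 4 uM fluorogenic substrate MCA-Pro-Leu-Gly-Leu-Dpa-Ala-Arg-NH2 and hydroxamate inhibitor.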

Recombinant human MMP-1 = target: T3, Recombinant human MMP-1 (Homo sapiens, UniProt P03956); details: fluorogenic MCA-peptide substrate, pH 7.5, room temperature
T3 construct: made in house; host or cells: transfected HT-1080 cells
T3 sequence (P03956 100-469): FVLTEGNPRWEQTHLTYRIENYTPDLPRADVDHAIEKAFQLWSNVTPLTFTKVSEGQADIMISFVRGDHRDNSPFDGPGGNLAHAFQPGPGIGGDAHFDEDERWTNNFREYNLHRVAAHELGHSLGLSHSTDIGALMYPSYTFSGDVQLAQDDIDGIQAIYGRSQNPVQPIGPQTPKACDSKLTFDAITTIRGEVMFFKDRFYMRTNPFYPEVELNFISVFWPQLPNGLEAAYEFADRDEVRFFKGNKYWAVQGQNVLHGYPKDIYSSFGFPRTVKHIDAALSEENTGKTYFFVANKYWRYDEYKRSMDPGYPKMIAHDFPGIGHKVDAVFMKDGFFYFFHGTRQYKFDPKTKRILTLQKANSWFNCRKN
Description: Recombinant human MMP-1, MMP-2, MMP-9, MMP-13, and were used in this assay. These enzymes were prepared in the Assignee's es following usual laboratory procedures. Specifics for preparing and e enzymes can be found in the scientific literature describing these See, e.g., Enzyme Nomenclature (Academic Press, San Diego, Calif., d the citations therein).
The MMP-1 was obtained from MMP-1 expressing transfected HT-1080 cells provided by Dr. Harold Welgus of Washington University in St. Louis, Mo. The MMP-1 was activated using 4-aminophenylmercuric acetate (APMA), and then purified over a hydroxamic acid column.
The enzyme substrate was a methoxycoumarin-containing polypeptide having the following sequence:
MCA-ProLeuGlyLeuDpaAlaArgNH2
Here, “MCA” is methoxycoumarin and “Dpa” is 3-(2,4-dinitrophenyl)-L-2,3-diaminopropionyl alanine.
These solutions were then compared to a control (which contained equal amount of DMSO/buffer solution, but no hydroxamate compound) using Microfluor™ White Plates (Dynatech, Chantilly, Va.). Specifically, The MMPs were activated with APMA or trypsin. […] The control likewise was incubated at room temperature in separate plates with the MMP and 4 uM of the MMP substrate. […] Inhibition was measured as a reduction in fluorescent intensity as a function of inhibitor concentration using a Perkin Elmer (Norwalk, Conn.) L550 plate reader. The IC50's were then calculated from these measurements.

SMILES	IC50 (Recombinant human MMP-13) [nM]	IC50 (Recombinant human MMP-2) [nM]	IC50 (Recombinant human MMP-1) [nM]
COCCN1CCC(C(=O)NO)(S(=O)(=O)c2ccc(N3CCC(C(=O)c4ccc(CC(C)C)cc4)CC3)cc2)CC1 [Example 218]	0.2	75.7	> 10000
Cc1cc(C(=O)C2CCN(c3ccc(S(=O)(=O)C4(C(=O)NO)CCN(S(C)(=O)=O)CC4)cc3)CC2)ccc1Cl [Example 219]	4.9	258	> 10000
CCc1ccc(C(=O)C2CCN(c3ccc(S(=O)(=O)C4(C(=O)NO)CCN(S(C)(=O)=O)CC4)cc3)CC2)cc1 [Example 220]	1.7	290	> 10000
CCN1CCC(C(=O)NO)(S(=O)(=O)c2ccc(N3CCC(C(=O)c4ccc(Cl)c(C)c4)CC3)cc2)CC1 [Example 221]	3.4	301	> 10000
CCc1ccc(C(=O)C2CCN(c3ccc(S(=O)(=O)C4(C(=O)NO)CCN(CC)CC4)cc3)CC2)cc1 [Example 222]	1	197	> 10000
COCCN1CCC(C(=O)NO)(S(=O)(=O)c2ccc(N3CCC(C(=O)c4ccc(CN(C)C)s4)CC3)cc2)CC1 [Example 223]	2.5	80.4	> 10000
COCCN1CCC(C(=O)NO)(S(=O)(=O)c2ccc(N3CCC(C(=O)c4ccc(CCCC(C)C)cc4)CC3)cc2)CC1 [Example 226]	< 0.1	1020	> 10000
COCCN1CCC(C(=O)NO)(S(=O)(=O)c2ccc(N3CCC(C(=O)c4ccc(OC5CCCC5)cc4)CC3)cc2)CC1 [Example 227]	1.4	132	> 10000
CCC(CC)Cc1ccc(C(=O)C2CCN(c3ccc(S(=O)(=O)C4(C(=O)NO)CCN(CCOC)CC4)cc3)CC2)cc1 [Example 230]	0.1	745	> 10000
COCCN1CCC(C(=O)NO)(S(=O)(=O)c2ccc(N3CCC(C(=O)c4ccc(CC(C)CO)cc4)CC3)cc2)CC1 (stereo not drawn) [Example 231]	0.5	39.4	> 10000
CCN1CCC(C(=O)NO)(S(=O)(=O)c2ccc(N3CCC(C(=O)c4ccc(CC5CCC5)cc4)CC3)cc2)CC1 [Example 232]	1.3	624	> 10000
CCC(C)Cc1ccc(C(=O)C2CCN(c3ccc(S(=O)(=O)C4(C(=O)NO)CCN(CC)CC4)cc3)CC2)cc1 (stereo not drawn) [Example 233]	1.2	1050	> 10000
CCC(CC)Cc1ccc(C(=O)C2CCN(c3ccc(S(=O)(=O)C4(C(=O)NO)CCN(CC)CC4)cc3)CC2)cc1 [Example 234]	7.5	2440	> 10000
CCN1CCC(C(=O)NO)(S(=O)(=O)c2ccc(N3CCC(C(=O)c4ccc(CC(C)CO)cc4)CC3)cc2)CC1 (stereo not drawn) [Example 235]	0.8	118	> 10000
CCN1CCC(C(=O)NO)(S(=O)(=O)c2ccc(N3CCC(C(=O)c4ccc(CCCC(C)C)cc4)CC3)cc2)CC1 [Example 236]	1.5	1850	> 10000
CCN1CCC(C(=O)NO)(S(=O)(=O)c2ccc(N3CCC(C(=O)c4ccc(CCC5CCCC5)cc4)CC3)cc2)CC1 [Example 237]	2.1	1910	> 10000
COCCN1CCC(C(=O)NO)(S(=O)(=O)c2ccc(N3CCC(C(=O)c4ccc(COCC(C)C)s4)CC3)cc2)CC1 [Example 243]	0.3	56	> 10000
COCCN1CCC(C(=O)NO)(S(=O)(=O)c2ccc(N3CCC(C(=O)c4ccc(CCC(C)C)cc4)CC3)cc2)CC1 [Example 246]	1	2710	> 10000

SMILES	IC50 (Recombinant human MMP-13) [nM]	IC50 (Recombinant human MMP-2) [nM]	IC50 (Recombinant human MMP-1) [nM]
CCN1CCC(C(=O)NO)(S(=O)(=O)c2ccc(N3CCC(C(=O)c4ccc(CCCC(C)O)cc4)CC3)cc2)CC1 (stereo not drawn) [Example 247]	0.3	111	> 10000
CCN1CCC(C(=O)NO)(S(=O)(=O)c2ccc(N3CCC(C(=O)c4ccc(CCC(C)O)cc4)CC3)cc2)CC1 (stereo not drawn) [Example 248]	0.6	141	> 10000
CCN1CCC(C(=O)NO)(S(=O)(=O)c2ccc(N3CCC(C(=O)c4ccc(CCC(C)C)c(F)c4)CC3)cc2)CC1 [Example 249]	5.8	> 10000	> 10000
COCCN1CCC(C(=O)NO)(S(=O)(=O)c2ccc(N3CCC(C(=O)c4ccc(CC(C)C)cn4)CC3)cc2)CC1 [Example 253]	1.7	38.7	> 10000
CCN1CCC(C(=O)NO)(S(=O)(=O)c2ccc(N3CCC(C(=O)c4ccc(CC5CC5)cc4)CC3)cc2)CC1 [Example 254]	1.3	132	> 10000
COc1ccc(C2CCN(c3ccc(S(=O)(=O)C4(C(=O)NO)CCN(C5CC5)CC4)cc3)CC2)cc1 [Example 260]	0.4	1.2	> 10000
O=C(NO)C1(S(=O)(=O)c2ccc(N3CCC(c4ccc(F)cc4)CC3)cc2)CCN(CC2CC2)CC1 [Example 263]	1.5	2.6	> 10000
COCCN1CCC(C(=O)NO)(S(=O)(=O)c2ccc(N3CCC(c4ccc(OC)cc4)CC3)cc2)CC1 [Example 267]	0.4	1.7	> 10000
COc1ccc(C2CCN(c3ccc(S(=O)(=O)C4(C(=O)NO)CCN(CC5CC5)CC4)cc3)CC2)cc1 [Example 268]	1.2	5	> 10000
O=C(NO)C1(S(=O)(=O)c2ccc(N3CCC(c4ccc(Cl)cc4)CC3)cc2)CCN(C2CC2)CC1 [Example 270]	1.1	1.9	> 10000
COCCN1CCC(C(=O)NO)(S(=O)(=O)c2ccc(N3CCC(c4ccc(Cl)cc4)CC3)cc2)CC1 [Example 271]	0.8	1.7	> 10000
Cc1ccc(C2CCN(c3ccc(S(=O)(=O)C4(C(=O)NO)CCN(C5CC5)CC4)cc3)CC2)cc1 [Example 272]	1.3	5.9	> 10000
O=C(c1ccc(F)c(F)c1)C1CCN(c2ccc(S(=O)(=O)C3(C(=O)NO)CCOCC3)cc2)CC1 [Example 302]	1.9	35	> 10000
COc1ccc(C(=O)C2CCN(c3ccc(S(=O)(=O)C4(C(=O)NO)CCOCC4)cc3)CC2)cc1C [Example 305]	6	3300	> 10000
COCCc1sc(CC(=O)C2CCN(c3ccc(S(=O)(=O)C4(C(=O)NO)CCOCC4)cc3)CC2)nc1C [Example 374]	5.6	970	> 10000
Cc1cc(C(=O)C2CCN(c3ccc(S(=O)(=O)C4(C(=O)NO)CCOCC4)cc3)CC2)ccc1OC(C)C [Example 376]	6.4	2190	> 10000
CC(C)Cc1ccc(C(=O)C2CCN(c3ccc(S(=O)(=O)C4(C(=O)NO)CCOCC4)cc3)CC2)cc1 [Example 377]	0.4	361	> 10000

From US20040209914A1, “Aromatic sulfone hydroxamic acids and their use as protease inhibitors” (priority 2000, published 2004)
